Source: ChEMBL document CHEMBL1153314, “[2-(4-Phenyl-4-piperidinyl)ethyl]amine based CCR5 antagonists: derivatizations at the N-terminal of the piperidine ring” (Bioorg Med Chem Lett, 2009)

Tests used:
in vivo [1] = conditions: rat, po, 1 mg/kg
in vivo [2] = conditions: rat, 1 mg/kg
in vivo [3] = conditions: rat, 1 mg/kg; remark: listed apart in the source
in vivo [4] = conditions: rat, 1 mg/kg; remark: listed apart in the source

| SMILES | bioavailability (in vivo [1]) | half-life (in vivo [2]) | Vd (in vivo [3]) | clearance (in vivo [4]) |
| --- | --- | --- | --- | --- |
| CNC(=O)C(c1ccc(F)cc1)N1CCC(CCN2[C@@H]3CC[C@H]2C[C@@H](n2c(C)nc4ccccc42)C3)(c2cccc(F)c2)CC1 (some centres not stated) | 37% | 6.1 h | 16.5 L/kg | 43 mL/min/kg |
| Cc1nc2ccccc2n1[C@H]1C[C@H]2CC[C@@H](C1)N2CCC1(c2ccccc2)CCN(C(C(=O)O)c2ccccc2)CC1 (some centres not stated) | 0% |  | 3.5 L/kg | 117 mL/min/kg |
